Results reported in patent publication US20160235642A1, “Melanin Binding Agents for Targeted Topical Delivery” (AVON PRODUCTS, INC, priority 2013, published 2016).

Key:
[1] = Binding of compounds to free synthetic melanin (Example 3); details: free synthetic melanin 50 μg/mL, compound 10 μM in PBS, 37° C., 1 hour; relative percentage of compound bound, measured spectrophotometrically from compound left in solution
Protocol: Free synthetic melanin was incubated with compounds of interest in order to determine relative binding affinity of various compounds of interest to melanin. Free synthetic melanin (50 μg/mL) and compounds of interest at 10 μM concentration in PBS were incubated at 37° C. for 1 hour. After 1 hour, the synthetic melanin was removed from the solution, and the relative concentrations of the compound left in solution (i.e., not bound to the melanin) were measured spectrophometrically.

[2] = tested on: Melanoderm Mel-B (high concentration of melanin) and Melanoderm Mel-C (low concentration of melanin) tissue models; test: Affinity of pyridinium compounds for melanin in Melanoderm tissue models (Example 2); assay type: cell-based
Text: Affinity of pyridinium compounds for melanin in Melanoderm Mel-B (high concentration of melanin) and Melanoderm Mel-C (low concentration of melanin) tissue models.
Melanoderm Mel-B (high concentration of melanin) and Melanoderm Mel-C (low concentration of melanin) tissue models were used to determine the affinity of pyridinium compounds for melanin. Chloroquine served as a positive control and caffeic acid was a negative control for melanin binding. […] Test materials were topically applied at 0, 24 and 48 hours and tested at 1 μM and 10 μM concentration in water. Media samples were collected at 6, 24, 48, and 72 hours and tissue were lysed at 72 hours.

Compound: OCC[n+]1ccccc1.[Cl-] [1-(2-Hydroxyethyl) pyridinium chloride]
- % Melanin Bound [1]: 0%

Compound: CCCC[n+]1ccccc1.[Cl-] [1-Butylpyridinium chloride]
- % Melanin Bound [1]: 0%

Compound: OCCc1c[nH]c2ccccc12 [3-(2-Hydroxyethyl)indole]
- % Melanin Bound [1]: 6.5%

Compound: Nc1cnc2ccccc2c1 [3-Aminoquinoline]
- % Melanin Bound [1]: 5.1%

Compound: CCCCCCCCCCCC[n+]1ccc(N)cc1.[Cl-] [4-Amino-1-dodecyl-pyridinium chloride]
- % Melanin Bound [1]: 49.5%
- melanin binding compared with the positive control (chloroquine) ([2]; Melanoderm tissue models, 1 μM and 10 μM): outperformed the positive control
- melanin binding, 10 μM compared to 1 μM concentration ([2]; Melanoderm tissue models, 10 μM versus 1 μM): increased melanin binding
- binding affinity for the 3-D tissue samples ([2]; topically applied at 0, 24 and 48 hours, 1 μM and 10 μM in water, media at 6, 24, 48, 72 hours, tissue lysed at 72 hours, FIG. 1): strong binding affinity

Compound: O=C(O)/C=C/c1ccc(O)c(O)c1 [Caffeic acid]
- % Melanin Bound [1]: 0%

Compound: Cn1c(=O)c2c(ncn2C)n(C)c1=O [Caffeine]
- % Melanin Bound [1]: 4.4%

Compound: CCN(CC)CCCC(C)Nc1ccnc2cc(Cl)ccc12 (stereo not shown) [Chloroquine]
- % Melanin Bound [1]: 48.6%

Compound: O=CC[C@@H](O)[C@H](O)[C@H](O)CO [Deoxy-d-glucose]
- % Melanin Bound [1]: Not detected

Compound: CCCCCCCCCCCCOC(=O)CCSCCC(=O)OCCCCCCCCCCCC [Dilauryl Thiodipropionate]
- % Melanin Bound [1]: Not detected

Compound: O=C(O)c1cc(O)c(O)c(O)c1 [Gallic acid]
- % Melanin Bound [1]: 0%

Compound: c1ccc2[nH]ccc2c1 [Indole]
- % Melanin Bound [1]: 7.3%

Compound: NC(=O)c1cccnc1 [Niacinamide]
- % Melanin Bound [1]: 0%

Compound: CC1COC(=O)O1 (stereo not shown) [Propylene Carbonate]
- % Melanin Bound [1]: Not detected

Compound: Cl.c1ccncc1 [Pyridine hydrochloride]
- % Melanin Bound [1]: 0%

Compound: Oc1ccccc1O [Pyrocatechol]
- % Melanin Bound [1]: 21.5%

Compound: Oc1cccc(O)c1O [Pyrogallol]
- % Melanin Bound [1]: Not detected

Compound: O=c1c(O)c(-c2ccc(O)c(O)c2)oc2cc(O)cc(O)c12 [Quercetin]
- % Melanin Bound [1]: 99.7%

Compound: O=C(O)CCSCCC(=O)O [Thiodipropanoic Acid]
- % Melanin Bound [1]: 1.5%
